Experimental data taken from US7592326B2, “Method for stimulating the immune, inflammatory or neuroprotective response” (priority 2004, dated 2009).

Tests used:
S. pneumoniae strain D39 = experiment: Mouse pneumococcal pneumonia (proposed); format: in vivo; conditions: 200 nmol 24- and 48 hours prior; 1×10^5 CFU D39
[1] = tested on: K. pneumoniae strain 43816, serotype 2; experiment: Survival in murine Klebsiella pneumonia; format: in vivo
Human immature DCs = experiment: Maturation of human monocyte-derived DCs (surface markers, flow cytometry); format: cell-based; conditions: 24 hours
Method: Buffy coats were obtained from healthy human volunteers and fractionated over Histopaque-1077. The peripheral blood mononuclear cells (PBMC) layer was recovered and erythrocyte-depleted by incubation in red blood cell lysis buffer for 5 minutes at room temperature. PBMCs were cultured in complete medium (RPMI 1640, 1% L-glutamine, 1% penicillin/streptomycin, and 10% low endotoxin FCS) for 2 hours in T75 flasks (Corning). Following incubation, nonadherent cells were removed by three washes with 1× PBS (Invitrogen, Carlsbad, Calif.). The remaining adherent cells were then cultured in complete medium supplemented with GM-CSF and IL-4 (50 ng/mL each). Human and murine IL-4 and GM-CSF were purchased from Peprotech (Rocky Hill, N.J.). On day 2 and day 4, the DC cultures received an additional dose of GM-CSF and IL-4 (50 ng/mL each). On day 5, non-adherent DC were harvested by gentle pipetting, counted, and plated in fresh medium containing GM-CSF and IL-4 (50 ng/mL each). […]
Surface expression of various markers was assessed using CellQuest analysis software on a FACScalibur (Becton-Dickinson) flow cytometer. Surface expression was determined using the following FITC- and PE-conjugated antibodies: CD86-FITC (Research Diagnostics), CCR7-PE (R&D Systems), CD80-FITC, CD83-FITC, HLA-DR-FITC (BD Pharmingen). The isotype control antibodies were used accordingly in all experiments and were purchased from Pharmingen. Human DC were incubated in 1% human AB serum/PBS and were incubated with rat anti-CD16/CD32 (BD Phamingen) to block non-specific binding. Total RNA was extracted using the RNeasy kit according to the manufacturer's protocol (Qiagen). […] Emitted fluorescence for each reaction was measured during the annealing/extension phase, and amplification plots were analyzed using the MX4000 software version 3.0 (Stratagene). Quantity values (i.e., copies) for gene expression were generated by comparison of the fluorescence generated by each sample with standard curves of known quantities. Next, the calculated number of copies was divided by the number of copies of the housekeeping gene GAPDH.

DCs [2] = experiment: DC apoptosis (FITC-Annexin V/PI double staining); format: cell-based, human; conditions: 24 h
Method: FITC-Annexin V/Propidium Iodure (PI) double staining was used to detect apoptosis of DCs treated with c-di-GMP. Immature and mature DCs, untreated or treated with c-di-GMP for 24 h, were harvested and washed twice with ice cold PBS; specific binding of FITC-annexin V and staining with PI was performed with an apoptosis detection kit accordingly to the manufacturer's instructions. The cells were then analyzed by flow cytometry.

[3] = format: in vitro ADME, human
Method: Commercially supplied pooled human serum (100 uL) (Cambrex Bio Science Walkersville, Inc.) was diluted in ion-exchanged water. An aliquot of the resulting human serum solution was subjected to HPLC analysis (conditions: COSMOSIL 5C18-AR-II column (4.6×200 mm); buffer A; buffer B, 80% acetonitrile in water; gradient, 0-10 min A 100%, 10-60 min A:B=100:0 to A:B=40:60 in 50 min; detection 254 nm, flow rate, 1.0 mL/min, temperature 40° C.). Separately, a 100 uM of c-di-GMP solution in human serum was prepared by adding 100 uL of a 500 uM c-di-GMP aqueous solution to a mixture of 390 uL of human serum and 10 uL of 40 mM 2-methylbenzimidazole (an internal standard for estimating the extent of decomposition of c-di-GMP) in methanol. An aliquot of the test solution was diluted immediately after the preparation solution and then heated at 100° C. for 5 min to quench activity of enzymes. The resulting test sample was subjected to HPLC analysis after 24 h treatment. Peaks that appeared in both analyses were compared. Results are based on 3 independent experiments.

[4] = tested on: autologous or allogeneic PBMC; experiment: Mixed leukocyte reaction with irradiated DCs ([3H]thymidine incorporation); format: cell-based, human; conditions: 100 μM c-di-GMP-treated immature DCs
Method: DCs were stimulated for 24 h with c-di-GMP or LPS and were then extensively washed and suspended in RPMI 1640 supplemented with 10% human serum, L-glutamine, and penicillin/streptomicin, irradiated (3,000 rad from a ^137Cs source) and added in graded doses to 1×10^5 responder T cells in 96 flat-bottom microplates. Responder cells were autologous or allogeneic PBMC. After 5 days, cultures were pulsed for 18 h with 0.5 µCi/well of [^3H]thymidine. Cells were then harvested onto glass fiber filters, and [^3H]thymidine incorporation was measured by liquid scintillation spectroscopy.

DCs [5] = experiment: Mannose receptor-mediated endocytosis (FITC-dextran uptake); format: cell-based, human; conditions: DCs treated 24 h; FIG. 2
Method: Mannose receptor (MR)-mediated endocytosis was measured as the cellular uptake of FITC-dextran (DX) and quantified by flow cytometry. A total of 2×10^5 cells per sample were incubated in media containing FITC-DX (1 mg/ml) (Mv 40,000). After 15 min of incubation at 37° C. or 4° C. (as negative control), cells were washed four times with cold PBS containing 1% FCS and 0.01% NaN3 and fixed in 1% formaldehyde. The background (cells pulsed at 4° C.) was always subtracted.

SMILES: Nc1nc(=O)c2ncn([C@@H]3OC4COP(=O)(O)O[C@H]5[C@@H](O)[C@H](n6cnc7c(=O)nc(N)[nH]c76)O[C@@H]5COP(=O)(O)OC4C3O)c2[nH]1 (stereo partly drawn) [c-di-GMP, Bis(3′→5′)-cyclic diguanylic acid]
- bacterial counts in the lungs (S. pneumoniae strain D39): decreased bacterial counts
- survival following i.t. Klebsiella challenge ([1]; 200 nmoles i.n. 48 and 24 hrs prior, Balb/c mice, vehicle approx. 10%, p<0.05, FIG. 15): significantly increased
- survival following i.t. Klebsiella challenge ([1]; 200 nmoles s.q. 48 and 24 hrs prior, Balb/c mice, p<0.05, FIG. 15): significantly increased
- survival following i.t. Klebsiella challenge ([1]; given concomitantly and 6 hrs post K. pneumoniae, data not shown): no increase in survival
- CD83 expression, net MFI (Human immature DCs; 200 uM c-di-GMP or LPS (positive control), untreated net MFI=4.89, FIG. 10A): 63.34
- expression of maturation markers CD80, CD86, CCR7, and MHC class II (Human immature DCs; 200 uM, FIG. 10C): increase
- concentration at which significant increases in surface CD83 begin (Human immature DCs; 5 to 500 uM, FIG. 10B): 32 µM
- Early apoptosis (% of annexin V^+/PI^− cells) (DCs [2]; cdiGMP 5 μM): 23%
- Late apoptosis (% of annexin V^+/PI^+ cells) (DCs [2]; cdiGMP 5 μM): 36%
- Early apoptosis (% of annexin V^+/PI^− cells) (DCs [2]; cdiGMP 50 μM): 31%
- Late apoptosis (% of annexin V^+/PI^+ cells) (DCs [2]; cdiGMP 50 μM): 40%
- Early apoptosis (% of annexin V^+/PI^− cells) (DCs [2]; cdiGMP 100 μM): 18%
- Late apoptosis (% of annexin V^+/PI^+ cells) (DCs [2]; cdiGMP 100 μM): 42%
- effect on DC apoptosis (DCs [2]; immature and mature DCs): did not appear to have any effect
- stability in human serum [3]: stable
- autologous T cell proliferation, increase compared to untreated DCs ([4]; FIG. 4A): five-fold
- heterologous T cell proliferation, increase compared to untreated DCs ([4]; FIG. 4B): two-fold
- uptake of FITC-DX (MR-mediated endocytosis) (DCs [5]): did not induce any major effect
